For 14 compounds, IC50, MIC and inhibition results are on record in ChEMBL document CHEMBL3779777, “Novel amalgamation of phthalazine-quinolines as biofilm inhibitors: One-pot synthesis, biological evaluation and in silico ADME prediction with favorable metabolic fate” (Bioorg Med Chem Lett, 2016).

Assay [1] concerns Pseudomonas aeruginosa. Nature of the assay: Antibiofilm activity against Pseudomonas aeruginosa PAO1 after 18 hrs by crystal violet staining based spectroscopy. In kind it is functional, organism-based. Particulars: PAO1, 18 h.
The test system of assay [2] is Pseudomonas aeruginosa. Nature of the assay: Antibacterial activity against Pseudomonas aeruginosa NCIM-2036 by standard agar method. In kind it is functional.
The test system of the next assay is Bacillus subtilis. The experiment in a line: Antibacterial activity against Bacillus subtilis NCIM-2063 by standard agar method. In kind it is functional.
A further assay concerns Staphylococcus aureus. The experiment in a line: Antibacterial activity against Staphylococcus aureus NCIM-2901 by standard agar method. In kind it is functional.
The subject of assay [3] is Candida albicans. Nature of the assay: Antibiofilm activity against Candida albicans after 24 hrs by MTT assay. In kind it is functional, organism-based. For orientation: Tetrazolium assays rely on reduction of a dye to a coloured formazan, in cell work by metabolically active cells.
Assay [4] concerns Candida albicans. Nature of the assay: Antifungal activity against Candida albicans NCIM-3471 by standard agar method. In kind it is functional.
Assay [5] concerns Candida albicans. The experiment in a line: Antibiofilm activity against Candida albicans assessed as inhibition of biofilm formation after […] by Field emission scanning electron microscopy. In kind it is functional, organism-based.
The test system of assay [6] is Pseudomonas aeruginosa. Nature of the assay: Antibiofilm activity against Pseudomonas aeruginosa assessed as inhibition of biofilm formation after […] by Field emission scanning electron microscopy. In kind it is functional, organism-based.

The structures appear in SMILES notation. Converted amounts (≈) assume the structure as drawn. The source made the active and inactive calls. The calls are words filed in the database; no cut-off is given here.

As a reminder, the IC50 is the concentration at which inhibition is half-maximal. A word on the MIC: it is the lowest concentration that inhibits growth of the organism. The low end stands for a more susceptible organism, the high end for a less susceptible organism. On to `COc1ccc2cc(C3C4=C(CC(C)(C)CC4=O)n4c(=O)c5ccccc5c(=O)n43)c3nnnn3c2c1` (stereo not drawn), for which the IC50 in the assay on Pseudomonas aeruginosa [1] is 72 µM; in the assay with Candida albicans [3], 43.5 µM. The minimum inhibitory concentration (MIC) turned out to be 250 µg/mL (≈ 506 µM) with Pseudomonas aeruginosa [2], 168 µg/mL (≈ 340 µM) against Bacillus subtilis, 195 µg/mL (≈ 394 µM) against Staphylococcus aureus and 220 µg/mL (≈ 445 µM) against Candida albicans [4].
As to `COc1ccc2c(c1)cc(C1C3=C(CC(C)(C)CC3=O)n3c(=O)c4ccccc4c(=O)n31)c1nnnn12` (stereo not drawn), the half-inhibitory concentration (IC50) in the assay on Pseudomonas aeruginosa [1] turned out to be 46.5 µM; in the assay on Candida albicans [3], 81 µM. In addition, the minimal inhibitory concentration (MIC) stood at 67.5 µg/mL (≈ 136 µM) against Pseudomonas aeruginosa [2], 188 µg/mL (≈ 379 µM) with Bacillus subtilis, 225 µg/mL (≈ 455 µM) in the assay with Staphylococcus aureus and 195 µg/mL (≈ 394 µM) in the assay with Candida albicans [4].
Turning to `Cc1cccc2cc(C3C4=C(CC(C)(C)CC4=O)n4c(=O)c5ccccc5c(=O)n43)c3nnnn3c12` (stereo not drawn), the IC50 in the assay with Pseudomonas aeruginosa [1] and with Candida albicans [3] was 61.5 µM in each case. The MIC worked out at 84.5 µg/mL (≈ 177 µM) in the assay with Pseudomonas aeruginosa [2], 170 µg/mL (≈ 355 µM) against Bacillus subtilis, 91.5 µg/mL (≈ 191 µM) in the assay with Staphylococcus aureus and 175 µg/mL (≈ 366 µM) with Candida albicans [4].
`COc1ccc2cc(C3C4=C(CC(C)(C)CC4=O)n4c(=O)c5ccccc5c(=O)n43)c(Cl)nc2c1` (stereo not drawn): the IC50 was found to be 58.5 µM with Pseudomonas aeruginosa [1] and 34.5 µM in the assay on Candida albicans [3]. In addition, the minimum inhibitory concentration (MIC) with Pseudomonas aeruginosa [2] was determined as 110 µg/mL (≈ 225 µM); against Bacillus subtilis it was 98.5 µg/mL (≈ 202 µM); against Staphylococcus aureus, 102 µg/mL (≈ 209 µM); in the assay with Candida albicans [4], 57.5 µg/mL (≈ 118 µM). In the assay with Candida albicans [5], the inhibition entry is “Active”.
For `Cc1ccc2c(c1)cc(C1C3=C(CC(C)(C)CC3=O)n3c(=O)c4ccccc4c(=O)n31)c1nnnn12` (stereo not drawn), the IC50 is 64.5 µM in the assay with Pseudomonas aeruginosa [1] and 70.5 µM in the assay with Candida albicans [3]. The minimal inhibitory concentration (MIC) turned out to be 67.5 µg/mL (≈ 141 µM) against Pseudomonas aeruginosa [2], 158 µg/mL (≈ 329 µM) against Bacillus subtilis, 225 µg/mL (≈ 470 µM) in the assay with Staphylococcus aureus and 67.5 µg/mL (≈ 141 µM) against Candida albicans [4].
`Cc1ccc2cc(C3C4=C(CC(C)(C)CC4=O)n4c(=O)c5ccccc5c(=O)n43)c(Cl)nc2c1` (stereo not drawn): the values for the IC50 with Pseudomonas aeruginosa [1] and in the assay with Candida albicans [3] were 51 µM and 49.5 µM, respectively. In addition, the MIC with Pseudomonas aeruginosa [2] was 185 µg/mL (≈ 392 µM); against Bacillus subtilis, 87.5 µg/mL (≈ 185 µM); in the assay with Staphylococcus aureus, 70 µg/mL (≈ 148 µM); in the assay with Candida albicans [4], 112 µg/mL (≈ 238 µM).
As to `OC(Cn1cncn1)(Cn1cncn1)c1ccc(F)cc1F` [FLUCONAZOLE], inhibition with Candida albicans [3] was half-maximal at 40 µM (IC50). Moreover, in the assay on Candida albicans [4], the MIC worked out at 50 µg/mL (≈ 163 µM).
For the compound `COc1ccc2nc(Cl)c(C3C4=C(CC(C)(C)CC4=O)n4c(=O)c5ccccc5c(=O)n43)cc2c1` (stereo not drawn), the figures for the IC50 in the assay on Pseudomonas aeruginosa [1] and in the assay on Candida albicans [3] were 73.5 µM and 36 µM, respectively. Also, the MIC against Pseudomonas aeruginosa [2] was determined as 205 µg/mL (≈ 420 µM); against Bacillus subtilis, 57.5 µg/mL (≈ 118 µM); in the assay with Staphylococcus aureus, 77.5 µg/mL (≈ 159 µM); in the assay with Candida albicans [4], 55 µg/mL (≈ 113 µM).
With `CC1(C)CC(=O)C2=C(C1)n1c(=O)c3ccccc3c(=O)n1C2c1cc2ccccc2n2nnnc12` (stereo not drawn), the IC50 was determined as 66 µM in the assay with Pseudomonas aeruginosa [1] and 49.5 µM with Candida albicans [3]. Further, the MIC stood at 68.5 µg/mL (≈ 147 µM) in the assay on Pseudomonas aeruginosa [2], 100 µg/mL (≈ 215 µM) against Bacillus subtilis, 85 µg/mL (≈ 183 µM) against Staphylococcus aureus and 112 µg/mL (≈ 242 µM) with Candida albicans [4].
`O=C(O)c1cn(C2CC2)c2cc(N3CCNCC3)c(F)cc2c1=O` [CIPROFLOXACIN] showed an IC50 in the assay with Pseudomonas aeruginosa [1] of 47 µM. Further, the MIC against Pseudomonas aeruginosa [2] is 50 µg/mL (≈ 151 µM).
Regarding `Cc1ccc2nc(Cl)c(C3C4=C(CC(C)(C)CC4=O)n4c(=O)c5ccccc5c(=O)n43)cc2c1` (stereo not drawn), the IC50 in the assay with Pseudomonas aeruginosa [1] amounted to 46.5 µM; in the assay on Candida albicans [3], 51 µM. The minimum inhibitory concentration (MIC) is 150 µg/mL (≈ 318 µM) in the assay with Pseudomonas aeruginosa [2], 158 µg/mL (≈ 334 µM) with Bacillus subtilis, 77.5 µg/mL (≈ 164 µM) with Staphylococcus aureus and 175 µg/mL (≈ 371 µM) with Candida albicans [4].
Turning to `CC1(C)CC(=O)C2=C(C1)n1c(=O)c3ccccc3c(=O)n1C2c1cc2ccccc2nc1Cl` (stereo not drawn), the IC50 turned out to be 30 µM in the assay with Pseudomonas aeruginosa [1] and 79.5 µM in the assay on Candida albicans [3]. Further, the MIC against Pseudomonas aeruginosa [2] was found to be 45 µg/mL (≈ 98.3 µM); in the assay on Bacillus subtilis, 148 µg/mL (≈ 324 µM); in the assay with Staphylococcus aureus, 178 µg/mL (≈ 390 µM); with Candida albicans [4], 125 µg/mL (≈ 273 µM). For the same compound, the inhibition entry in the assay with Pseudomonas aeruginosa [6] is “Active”.
For the compound `Cc1ccc2cc(C3C4=C(CC(C)(C)CC4=O)n4c(=O)c5ccccc5c(=O)n43)c3nnnn3c2c1` (stereo not drawn), the IC50 was 51 µM in the assay with Pseudomonas aeruginosa [1] and 67.5 µM in the assay on Candida albicans [3]. Further, the MIC with Pseudomonas aeruginosa [2] is 102 µg/mL (≈ 213 µM); against Bacillus subtilis, 158 µg/mL (≈ 329 µM); in the assay on Staphylococcus aureus, 112 µg/mL (≈ 234 µM); in the assay on Candida albicans [4], 55 µg/mL (≈ 115 µM).
`Cc1cccc2cc(C3C4=C(CC(C)(C)CC4=O)n4c(=O)c5ccccc5c(=O)n43)c(Cl)nc12` (stereo not drawn): the values for the IC50 in the assay on Pseudomonas aeruginosa [1] and in the assay on Candida albicans [3] were 66 µM and 37.5 µM, respectively. Besides, the MIC was determined as 120 µg/mL (≈ 254 µM) against Pseudomonas aeruginosa [2], 142 µg/mL (≈ 302 µM) in the assay with Bacillus subtilis, 67.5 µg/mL (≈ 143 µM) with Staphylococcus aureus and 50 µg/mL (≈ 106 µM) against Candida albicans [4].
